Data reported in PubChem BioAssay AID2374 (NMMLSC, 2010).

Molecular target: Cell division control protein 42 homolog (Homo sapiens) (UniProt P60953)
Assay: inhibition of GTPgammaS loading onto Cdc42, late-stage follow-up, orthogonal assay for Ras-related GTPase inhibitor project, biochemical, purified His-Cdc42, PAK-PBD pull-down, Western blot (AID 2374)
Conditions: His-Cdc42 GTPgS loading, at 10 µM, stronger effect = higher value

Chain of Cell division control protein 42 homolog (Homo sapiens) (P60953 whole entry, looked up): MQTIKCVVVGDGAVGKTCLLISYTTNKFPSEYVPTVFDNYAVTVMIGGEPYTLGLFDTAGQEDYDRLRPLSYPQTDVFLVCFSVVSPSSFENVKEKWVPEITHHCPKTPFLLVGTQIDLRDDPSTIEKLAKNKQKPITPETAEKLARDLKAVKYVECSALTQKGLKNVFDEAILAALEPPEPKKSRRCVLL

COc1ccc(C2CC(c3ccccc3)=NN2c2ccc(S(N)(=O)=O)cc2)cc1 (stereo not drawn)
inhibition (at 0.1 uM GTPgS): 96% | inhibition (at 0.5 uM GTPgS): 94% | inhibition: 60%
